Results: patent US11261196B2, “Salt serving as AKT inhibitor and crystal thereof” (HARBIN ZHENBAO PHARMACEUTICAL CO., LTD., priority 2017, dated 2022)
Several values for one entry are separate records, joined by “and”; a condition that tells them apart may be missing. Identical values can stand only once. Entries after “also recorded” stand apart in the source; their conditions may differ. Like-named read-outs stand apart in the source and are kept apart here.

Experiments:
Assay type in all cases: physicochemical
[1] = Solubility test of the crystal form in different solvents; conditions: 25±2° C.; for solubility at 30 min: 25 °C, thermodynamic from solid, read-out: Solubility classification
Method: 10 mg of the crystal form of the compound of formula (I) was weighed accurately and placed in a glass bottle, 1 mL solvent was added thereto, the solution was shaken vigorously for 30 seconds every 5 minutes under 25±2° C., the dissolution phenomenon within 30 minutes was observed. The corresponding data was recorded. 1 mg of the insoluble sample in step 2.1 was weighed accurately and placed in a glass bottle, a suitable solvent was added thereto, the solution was shaken vigorously for 30 seconds every 5 minutes under 25±2° C., the dissolution phenomenon within 30 minutes was observed. The corresponding data was recorded. [table]

[2] = Hygroscopicity test of the crystal form; conditions: 25° C., 24 hours
Method: Three dry glass weighing bottles (with an outer diameter of 50 mm and a height of 30 mm) with a stopper was placed in a desiccator with saturated ammonium chloride solution at the lower part, the glass weighing bottles were left open, the desiccator was covered with lid, and then the desiccator was placed in a 25° C. incubator and left overnight.
The weighing bottle was weighed precisely after placed overnight, the weight was respectively m1 1, m1 2, m1 3
An appropriate amount of the crystal form of the compound of formula (I) was laid flat in the weighing bottles which was already weighed (with the sample thickness of about 1 mm), and was weighed precisely, the weight was respectively m2 1, m2 2, m2 3.
The weighing bottle was left open and was placed together with the stopper in a desiccator with saturated ammonium chloride solution at the lower part, the weighing bottle was left open, the desiccator was covered with lid, and then the desiccator was placed in a 25° C. incubator for 24 hours.
The weighing bottle was covered with its stopper after placed for 24 hours, and then it was weighed precisely, the weight was respectively m3 1, m3 2, m3 3.
The hygroscopic weight gain was calculated, the calculation formula is as follows: Weight gain percentage=100%×(m3−m2)/(m2−m1)

[3] = Stability test of the crystal form (accelerated conditions, HPLC related substances)
Method: […] The sample was analyzed after 10 days, 1 month and 2 months.
1.2 Preparation of Diluent and Mobile Phase
Diluent: acetonitrile:water (1:1) was used as diluent
For example: 100 mL of pure water and 100 mL of pure acetonitrile were mixed in a glass bottle, followed by degassing with ultrasound for 10 minutes, then cooled down to room temperature.
Mobile phase A: 0.1% phosphoric acid aqueous solution
For example: 2.0 mL phosphoric acid was added into 2000 mL water, followed by ultrasound treatment for 10 minutes, the solution was mixed well and cooled down to room temperature as mobile phase A.
Mobile phase B: acetonitrile
Acetonitrile was used as mobile phase B.
1.3 Preparation of the Reference Solution (0.25 mg/mL Calculated by the Free Base)
The sample of the 0th day was used as reference sample, 16 mL of diluent was added thereto, followed by ultrasound treatment for 5 minutes, and the solution was mixed well. Then the solution was further subjected to 1-fold dilution and marked as STD-1 and STD-2, respectively.
1.4 Preparation of Sample Solution for Testing Sensitivity
Reference solution STD-1 (the sample of the 0th day) was subjected to 2000-fold dilution, noted as LOQ.
1.5 Preparation of the Sample Solution (0.25 mg/mL Calculated by the Freebase)
The sample was taken out and restored to room temperature and 16 mL diluent was added for dissolution. The solution was further subjected to 1-fold dilution to be used as sample solution to detect the content of related substances.

For `Cc1cnn2c1-c1cc(C(=O)N[C@H](CN)Cc3cccc(F)c3)sc1CCC2.O=C(O)/C=C\C(=O)O`, the Solubility classification ([1]; 0.1N HCl) was “barely soluble or insoluble”, the Solubility classification ([1]; 0.1N NaOH) was “barely soluble or insoluble” and the solubility at 30 min ([1]; aqueous buffer, 0.1N NaOH) was < 0.1 mg/mL. For the same molecule, the solubility at 30 min ([1]; organic solvent or mixture, Acetonitrile) was < 0.1 mg/mL, the solubility at 30 min ([1]; organic solvent or mixture, Dimethyl sulfoxide) was 100 to 1000 mg/mL and the solubility at 30 min ([1]; organic solvent or mixture, Methanol) was 1 to 10 mg/mL. The solubility at 30 min ([1]; organic solvent or mixture, N-Methylpyrrolidone) was 100 to 1000 mg/mL, the solubility at 30 min ([1]; simulated gastric fluid, 0.1N HCl) was 0.1 to 1 mg/mL and the solubility at 30 min ([1]; Water) was < 0.1 mg/mL. The Solubility classification ([1]; Acetonitrile) was “barely soluble or insoluble”, the Solubility classification ([1]; Dimethyl sulfoxide) was “quite soluble” and the Solubility classification ([1]; Methanol) was “slightly soluble”. For the same molecule, the Solubility classification ([1]; N-Methylpyrrolidone) was “quite soluble”, the Solubility classification ([1]; Water) was “barely soluble or insoluble” and the Hygroscopicity scale [2] was “no or almost no hygroscopicity”. The “Weight gain percentage, Average” value ([2]; average of 3 samples, saturated ammonium chloride) was 0.07%, the Weight gain percentage ([2]; single samples 1-3, saturated ammonium chloride) was 0.05% and 0.12% and 0.04% and the “Impurity content, RRT 0.95” value ([3]; 40° C./75%RH, 1M) was 0.05%. For the same molecule, the “Impurity content, RRT 0.98” value ([3]; 40° C./75%RH, 1M) was 0.10%, the “Impurity content, RRT 0.99” value ([3]; 40° C./75%RH, 1M) was 1.36% and the “Impurity content, RRT 1.02” value ([3]; 40° C./75%RH, 1M) was 0.22%. The “Impurity content, RRT 1.04” value ([3]; 40° C./75%RH, 1M) was 0.05%, the “Impurity content, RRT 1.06” value ([3]; 40° C./75%RH, 1M) was 0.05% and the “Impurity content, RRT 1.21” value ([3]; 40° C./75%RH, 1M) was 1.50%. The “Impurity content, RRT 1.26” value ([3]; 40° C./75%RH, 1M) was 0.07%, the “TRS (total impurity content)” value ([3]; 40° C./75%RH, 1M) was 3.38% and the “Impurity content, RRT 0.95” value ([3]; 40° C./75%RH, 2M) was 0.04%. The “Impurity content, RRT 0.98” value ([3]; 40° C./75%RH, 2M) was 0.10%, the “Impurity content, RRT 0.99” value ([3]; 40° C./75%RH, 2M) was 1.31% and the “Impurity content, RRT 1.02” value ([3]; 40° C./75%RH, 2M) was 0.20%. The “Impurity content, RRT 1.04” value ([3]; 40° C./75%RH, 2M) was 0.04%, the “Impurity content, RRT 1.06” value ([3]; 40° C./75%RH, 2M) was 0.09% and the “Impurity content, RRT 1.21” value ([3]; 40° C./75%RH, 2M) was 1.44%. For the same molecule, the “Impurity content, RRT 1.26” value ([3]; 40° C./75%RH, 2M) was 0.06%, the “Impurity content, RRT 1.43” value ([3]; 40° C./75%RH, 2M) was 0.09% and the “TRS (total impurity content)” value ([3]; 40° C./75%RH, 2M) was 3.37%. For the same molecule, the “Impurity content, RRT 0.98” value ([3]; 40° C./75%RH, 10D) was 0.10%, the “Impurity content, RRT 0.99” value ([3]; 40° C./75%RH, 10D) was 1.40% and the “Impurity content, RRT 1.02” value ([3]; 40° C./75%RH, 10D) was 0.24%. The “Impurity content, RRT 1.04” value ([3]; 40° C./75%RH, 10D) was 0.04%, the “Impurity content, RRT 1.21” value ([3]; 40° C./75%RH, 10D) was 1.50% and the “Impurity content, RRT 1.26” value ([3]; 40° C./75%RH, 10D) was 0.06%. For the same molecule, the “TRS (total impurity content)” value ([3]; 40° C./75%RH, 10D) was 3.35%, the “Impurity content, RRT 0.95” value ([3]; 60° C./75%RH, 1M) was 0.05% and the “Impurity content, RRT 0.98” value ([3]; 60° C./75%RH, 1M) was 0.10%. For the same molecule, the “Impurity content, RRT 0.99” value ([3]; 60° C./75%RH, 1M) was 1.27%, the “Impurity content, RRT 1.02” value ([3]; 60° C./75%RH, 1M) was 0.19% and the “Impurity content, RRT 1.04” value ([3]; 60° C./75%RH, 1M) was 0.08%. For the same molecule, the “Impurity content, RRT 1.06” value ([3]; 60° C./75%RH, 1M) was 0.34%, the “Impurity content, RRT 1.21” value ([3]; 60° C./75%RH, 1M) was 1.44% and the “Impurity content, RRT 1.26” value ([3]; 60° C./75%RH, 1M) was 0.10%. The “TRS (total impurity content)” value ([3]; 60° C./75%RH, 1M) was 3.57%, the “Impurity content, RRT 0.95” value ([3]; 60° C./75%RH, 2M) was 0.04% and the “Impurity content, RRT 0.98” value ([3]; 60° C./75%RH, 2M) was 0.10%. The “Impurity content, RRT 0.99” value ([3]; 60° C./75%RH, 2M) was 1.22%, the “Impurity content, RRT 1.02” value ([3]; 60° C./75%RH, 2M) was 0.24% and the “Impurity content, RRT 1.04” value ([3]; 60° C./75%RH, 2M) was 0.08%. The “Impurity content, RRT 1.06” value ([3]; 60° C./75%RH, 2M) was 0.45%, the “Impurity content, RRT 1.21” value ([3]; 60° C./75%RH, 2M) was 1.43% and the “Impurity content, RRT 1.26” value ([3]; 60° C./75%RH, 2M) was 0.10%. For the same molecule, the “Impurity content, RRT 1.33” value ([3]; 60° C./75%RH, 2M) was 0.06%, the “Impurity content, RRT 1.36” value ([3]; 60° C./75%RH, 2M) was 0.08% and the “Impurity content, RRT 1.43” value ([3]; 60° C./75%RH, 2M) was 0.05%. The “TRS (total impurity content)” value ([3]; 60° C./75%RH, 2M) was 3.85%, the “Impurity content, RRT 0.98” value ([3]; 60° C./75%RH, 10D) was 0.10% and the “Impurity content, RRT 0.99” value ([3]; 60° C./75%RH, 10D) was 1.36%. For the same molecule, the “Impurity content, RRT 1.02” value ([3]; 60° C./75%RH, 10D) was 0.24%, the “Impurity content, RRT 1.04” value ([3]; 60° C./75%RH, 10D) was 0.07% and the “Impurity content, RRT 1.06” value ([3]; 60° C./75%RH, 10D) was 0.15%. The “Impurity content, RRT 1.21” value ([3]; 60° C./75%RH, 10D) was 1.46%, the “Impurity content, RRT 1.26” value ([3]; 60° C./75%RH, 10D) was 0.09% and the “TRS (total impurity content)” value ([3]; 60° C./75%RH, 10D) was 3.47%. The “Stability” value ([3]; high temperature and high humidity) was “stable under the conditions of high temperature and high humidity; also recorded: relatively stable, and less affected by heat and humidity”, the “Impurity content, RRT 0.95” value ([3]; −20° C., 1M) was 0.04% and the “Impurity content, RRT 0.98” value ([3]; −20° C., 1M) was 0.11%. The “Impurity content, RRT 0.99” value ([3]; −20° C., 1M) was 1.38%, the “Impurity content, RRT 1.02” value ([3]; −20° C., 1M) was 0.22% and the “Impurity content, RRT 1.04” value ([3]; −20° C., 1M) was 0.05%. For the same molecule, the “Impurity content, RRT 1.21” value ([3]; −20° C., 1M) was 1.52%, the “Impurity content, RRT 1.26” value ([3]; −20° C., 1M) was 0.07% and the “TRS (total impurity content)” value ([3]; −20° C., 1M) was 3.38%. For the same molecule, the “Impurity content, RRT 0.95” value ([3]; −20° C., 2M) was 0.04%, the “Impurity content, RRT 0.98” value ([3]; −20° C., 2M) was 0.10% and the “Impurity content, RRT 0.99” value ([3]; −20° C., 2M) was 1.35%. The “Impurity content, RRT 1.02” value ([3]; −20° C., 2M) was 0.19%, the “Impurity content, RRT 1.04” value ([3]; −20° C., 2M) was 0.04% and the “Impurity content, RRT 1.21” value ([3]; −20° C., 2M) was 1.51%. The “Impurity content, RRT 1.26” value ([3]; −20° C., 2M) was 0.10%, the “Impurity content, RRT 1.43” value ([3]; −20° C., 2M) was 0.05% and the “TRS (total impurity content)” value ([3]; −20° C., 2M) was 3.38%. For the same molecule, the “Impurity content, RRT 0.95” value ([3]; −20° C., 10D) was 0.04%, the “Impurity content, RRT 0.98” value ([3]; −20° C., 10D) was 0.10% and the “Impurity content, RRT 0.99” value ([3]; −20° C., 10D) was 1.37%. The “Impurity content, RRT 1.02” value ([3]; −20° C., 10D) was 0.29%, the “Impurity content, RRT 1.04” value ([3]; −20° C., 10D) was 0.07% and the “Impurity content, RRT 1.21” value ([3]; −20° C., 10D) was 1.47%. The “Impurity content, RRT 1.26” value ([3]; −20° C., 10D) was 0.05% and the “TRS (total impurity content)” value ([3]; −20° C., 10D) was 3.39%.
